Data set [1] is described as follows: Cytotoxicity against human THP-1 cells assessed as cellular proliferation inhibition measured after 48 hrs by MTT assay. Type of data set: toxicity, cell-based.
The target in data set [2] is NLR family CARD domain-containing protein 4 (Homo sapiens) (UniProt Q9NPP4). Briefly: Inhibition of NLRC4 inflammasome in flagellin of Salmonella typhimurium-induced human THP-M cells assessed as inhibition of IL-1beta level at 20 to 60 uM pretreated for 24 hrs followed by stimulated with LPS by ELISA. Type of data set: cell-based. As to conditions: dose 20-60 µM. A general note: An ELISA detects its analyte on a solid surface through an enzyme-linked reagent.

Data set [3] relates to THP-M. Briefly: Effect on transcription of NLRP3 in LPS-induced human THP-M cells assessed as NLRP3 mRNA expression at 10 to 50 uM pretreated for 24 hrs followed by stimulated with LPS for 4 hrs by qRT-PCR analysis. The data set is classed as functional, cell-based. As to conditions: dose 10-50 µM, time 28.0 hrs. In general terms: Quantitative PCR measures a nucleic acid by following its amplification.

The test system of data set [4] is THP-M. Briefly: Inhibition of NLRP3 and […] protein-protein interaction in human THP-M cells assessed as suppression activation of NLRP3 inflammasome by affecting ASC oligomerization at 10 to 50 uM pretreated for 24 hrs followed by stimulated with LPS for 3 hrs and ATP for 1 hr by co-IP analysis. The data set is classed as cell-based. Conditions: dose 10-50 µM, time 28.0 hrs.

For data set [5], the system named is Rattus norvegicus. Briefly: Anti-inflammatory activity against complete Freund's adjuvant (CFA)-induced arthritis rat model assessed as recovery in degree of swelling in left hind paw at 20 to 80 mg/kg, ip treated after 17 days of CFA challenge measured after 18 days (day 17 to 34) relative to control. Type of data set: functional, organism-based. As to conditions: dose 20-80 mg/kg, time 18.0 day.

Data set [6] deals with Rattus norvegicus. The data set can be described thus: Anti-inflammatory activity against complete Freund's adjuvant (CFA)-induced arthritis rat model assessed as recovery in degree of swelling in right hind paw at 20 to 80 mg/kg, ip treated after 17 days of CFA challenge measured after 18 days (day 17 to 34) relative to control. Type of data set: functional, organism-based. Conditions: dose 20-80 mg/kg, time 18.0 day.

Data set [7] deals with Rattus norvegicus. The data set can be described thus: Anti-inflammatory activity against complete Freund's adjuvant (CFA)-induced arthritis rat model assessed as decrease in spleen size at 20 to 80 mg/kg, ip treated after 17 days of CFA challenge measured after 18 days (day 17 to 34) relative to model group. Conditions: dose 20-80 mg/kg, time 18.0 day. The data set is classed as functional, organism-based.

Data set [8] has as its system Rattus norvegicus. Briefly: Anti-inflammatory activity against complete Freund's adjuvant (CFA)-induced arthritis rat model assessed as decrease in serum IL-1beta level at 20 to 80 mg/kg, ip treated after 17 days of CFA challenge measured after 18 days (day 17 to 34) by ELISA relative to model group. The data set is classed as functional, organism-based. As to conditions: dose 20-80 mg/kg, time 18.0 day.

In data set [9] the test system is Rattus norvegicus. The data set can be described thus: Anti-inflammatory activity against complete Freund's adjuvant (CFA)-induced arthritis rat model assessed as synovial hyperplasia in rat synovium from the left rear ankle at 20 to 80 mg/kg, ip treated after 17 days of CFA challenge measured after 18 days (day 17 to 34) by H and E staining based assay relative to model group. The data set is classed as functional, organism-based. Conditions: dose 20-80 mg/kg, time 18.0 day.

The test system of data set [10] is Rattus norvegicus. The data set can be described thus: Anti-inflammatory activity against complete Freund's adjuvant (CFA)-induced arthritis rat model assessed as reduction in IL-1beta in rat synovium from the left rear ankle at 20 to 80 mg/kg, ip treated after 17 days of CFA challenge measured after 18 days (day 17 to 34) by immunofluorescence based assay relative to model group. The data set is classed as functional, organism-based. As to conditions: dose 20-80 mg/kg, time 18.0 day.

Data set [11] relates to Rattus norvegicus. Briefly: Anti-inflammatory activity against complete Freund's adjuvant (CFA)-induced arthritis rat model assessed as reduction in NLRP3 in rat synovium from the left rear ankle at 20 to 80 mg/kg, ip treated after 17 days of CFA challenge measured after 18 days (day 17 to 34) by immunohistochemistry based assay relative to model group. The data set is classed as functional, organism-based. Conditions: dose 20-80 mg/kg, time 18.0 day.

The test system of data set [12] is Rattus norvegicus. Briefly: Anti-inflammatory activity against complete Freund's adjuvant (CFA)-induced arthritis rat model assessed as reduction in NLRP3 in rat synovium from the left rear ankle at 20 to 80 mg/kg, ip treated after 17 days of CFA challenge measured after 18 days (day 17 to 34) by immunofluorescence based assay relative to model group. The data set is classed as functional, organism-based. Conditions: dose 20-80 mg/kg, time 18.0 day.

Data set [13] can be described thus: Cmax in Sprague-Dawley rat at 20 mg/kg, IG measured upto 1440 mins by LC-MS/MS analysis. Conditions: in vivo, po. The data set is classed as ADME, organism-based.
The nature of data set [14]: AUC (0 to infinity) in Sprague-Dawley rat at 20 mg/kg, IG measured upto 1440 mins by LC-MS/MS analysis. Type of data set: ADME, organism-based. Conditions: in vivo, po.
The nature of data set [15]: MRT (0 to t) in Sprague-Dawley rat at 20 mg/kg, IG measured upto 1440 mins by LC-MS/MS analysis. The data set is classed as ADME, organism-based. Conditions: in vivo, po.
The nature of data set [16]: MRT (0 to infinity) in Sprague-Dawley rat at 20 mg/kg, IG measured upto 1440 mins by LC-MS/MS analysis. Type of data set: ADME, organism-based. Conditions: in vivo, po.
Data set [17] is described as follows: Apparent clearance during terminal phase in Sprague-Dawley rat at 20 mg/kg, IG measured upto 1440 mins by LC-MS/MS analysis. The data set is classed as ADME, organism-based. As to conditions: in vivo, po.
Data set [18] can be described thus: Apparent volume of distribution during terminal phase in Sprague-Dawley rat at 20 mg/kg, IG measured upto 1440 mins by LC-MS/MS analysis. Type of data set: ADME, organism-based. As to conditions: in vivo, po, read-out: Vz/F.
Data set [19] is described as follows: AUC (0 to t) in Sprague-Dawley rat at 20 mg/kg, ip measured upto 720 mins by LC-MS/MS analysis. Conditions: in vivo. The data set is classed as ADME, organism-based.
The nature of data set [20]: AUC (0 to infinity) in Sprague-Dawley rat at 20 mg/kg, ip measured upto 720 mins by LC-MS/MS analysis. Type of data set: ADME, organism-based. As to conditions: in vivo, 12 h.
Data set [21] can be described thus: MRT (0 to infinity) in Sprague-Dawley rat at 20 mg/kg, ip measured upto 720 mins by LC-MS/MS analysis. The data set is classed as ADME, organism-based. As to conditions: in vivo.
Data set [22] is described as follows: Apparent volume of distribution during terminal phase in Sprague-Dawley rat at 20 mg/kg, ip measured upto 720 mins by LC-MS/MS analysis. Type of data set: ADME, organism-based. As to conditions: in vivo, read-out: Vz/F.
A short description of data set [23]: Bioavailability in Sprague-Dawley rat at 20 mg/kg, ip measured upto 720 mins by LC-MS/MS analysis. As to conditions: in vivo. Type of data set: ADME, organism-based.

Calls of active or inactive are those of the source. The calls are words filed in the database; no cut-off is given here.

Chain of NLR family CARD domain-containing protein 4 (Homo sapiens) (Q9NPP4 whole entry, the tested form may be a part): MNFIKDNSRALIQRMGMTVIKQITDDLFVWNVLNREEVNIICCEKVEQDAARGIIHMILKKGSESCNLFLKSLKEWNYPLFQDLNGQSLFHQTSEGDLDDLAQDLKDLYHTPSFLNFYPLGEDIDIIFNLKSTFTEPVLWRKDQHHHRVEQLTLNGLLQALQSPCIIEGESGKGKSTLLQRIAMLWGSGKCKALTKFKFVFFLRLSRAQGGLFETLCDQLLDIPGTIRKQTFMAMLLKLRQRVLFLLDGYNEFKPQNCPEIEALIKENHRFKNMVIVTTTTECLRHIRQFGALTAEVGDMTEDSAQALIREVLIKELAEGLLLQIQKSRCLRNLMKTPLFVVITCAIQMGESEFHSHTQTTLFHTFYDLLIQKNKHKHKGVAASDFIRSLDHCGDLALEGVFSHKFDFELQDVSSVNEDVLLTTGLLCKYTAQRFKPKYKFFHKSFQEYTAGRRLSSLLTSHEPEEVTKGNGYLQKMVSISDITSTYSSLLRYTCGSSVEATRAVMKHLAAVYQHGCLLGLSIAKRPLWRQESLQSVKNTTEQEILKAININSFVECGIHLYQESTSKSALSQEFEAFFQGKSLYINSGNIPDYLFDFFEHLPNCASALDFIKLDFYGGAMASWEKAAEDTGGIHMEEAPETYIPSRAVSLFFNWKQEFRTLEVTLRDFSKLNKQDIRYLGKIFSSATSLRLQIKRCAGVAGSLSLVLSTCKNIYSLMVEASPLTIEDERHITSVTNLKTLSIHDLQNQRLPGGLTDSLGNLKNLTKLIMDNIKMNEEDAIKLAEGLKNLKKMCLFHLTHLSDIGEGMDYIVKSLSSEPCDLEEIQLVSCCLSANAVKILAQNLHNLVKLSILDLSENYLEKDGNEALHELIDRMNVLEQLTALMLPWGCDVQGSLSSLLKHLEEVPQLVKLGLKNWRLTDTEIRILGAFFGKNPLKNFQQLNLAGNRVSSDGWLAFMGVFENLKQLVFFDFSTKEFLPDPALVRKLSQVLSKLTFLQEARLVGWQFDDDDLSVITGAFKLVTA

One may read the IC50 as the concentration that gives 50% inhibition. As usually defined, the Cmax is the peak of the concentration-time curve. As a reminder, the AUC(0-inf) is total exposure, with the tail of the curve extrapolated. A high value points to more exposure. A word on the MRT last: it is the average time that molecules of a dose stay in the body. As a reminder, the MRT inf is a mean duration of stay, worked out from the concentration-time curve. In general, CL/F refers to the apparent clearance, not corrected for the fraction that reaches the circulation. In general, AUC(0-t) refers to exposure summed from dosing to a finite time, without extrapolation to infinity. A word on the AUC: it is the area under the concentration-time curve, a measure of exposure. Lower therefore signals less exposure. The term bioavailability denotes dose-corrected exposure relative to a reference, in per cent. The low end stands for poor availability, the high end for good availability. As to `COCCCNC(=O)c1ccc(Cn2c(SCC3CCCCC3)nc3ccncc32)cc1`, the IC50 at 48 h in data set [1] is over 100 µM. Besides, in [2], the inhibition result is “inactive”. Besides, in data set [3], the outcome was inactive. In addition, the inhibition entry in data set [4] was “Dose-Dependent Effect”. Besides, the result in [5], in data set [6], in data set [7], in [8], in data set [9] and in data set [10] was Active. Moreover, the result in [11] and in data set [12] was Active. Further, the concentration in data set [13] peaked (Cmax) at 448 ng/mL. In [14], this molecule had an AUC(0-inf) of 867 ng·h/mL. The same molecule had an MRT last at 24 h in [15] of 2.31 h. In addition, the mean residence time MRT inf is 2.7 h in data set [16] and 0.742 h in data set [21]. In [17], the apparent clearance (CL/F) is 410 mL/min/kg. Besides, the Vd/F in data set [18] was 73.4 L/kg; in [22], 2.8 L/kg. In data set [19], this molecule had an AUC(0-t) at 12 h of 1860 ng·h/mL. In addition, the AUC in data set [20] is 112685 ng·min/mL. The molecule also displayed a bioavailability in [23] of 11.5%.

For the origin of these results see ChEMBL document CHEMBL5500404, “Discovery and Development of NLRP3 Inhibitors Targeting the LRR Domain to Disrupt NLRP3-NEK7 Interaction for the Treatment of Rheumatoid Arthritis” (J Med Chem, 2024).
